Assay results: patent US20130274174A1, “THERAPEUTIC COMBINATION OF DAPTOMYCIN AND PROTEIN SYNTHESIS INHIBITOR ANTIBIOTIC, AND METHODS OF USE” (priority 2011, published 2013)
Values after ≈ are worked out from the molar mass of the structure shown. Where two headings read alike, the source gives them in different places.

Experiments:
S. aureus ATCC 33591 = assay: microbe, parasite or virus in culture; format: cell-based, Staphylococcus aureus; details: for MIC: Staphylococcus aureus
Outline: (§1)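 MW2 passaged on cation-adjusted Mueller-Hinton II agar with ¼ MIC of TR-700, TR-705, LZD, TIA, CLI, TET, VAN or TMP/SMX plus a linear DAP gradient; ATCC 33591 with ¼ MIC TR-700, TMP/SMX or VAN; DAP-only controls.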

S. aureus MW2 (NRS123) = assay: microbe, parasite or virus in culture; format: cell-based, Staphylococcus aureus; details: for MIC: Staphylococcus aureus
Outline: as §1

[1] = Solubility of test articles in stock solutions and at final test concentrations; format: physicochemical; details: stock solution in DMSO:water (1:1)
Experimental: Test articles of stock solutions of daptomycin (Cubist, lot MCB2007) and TR-700 were prepared at 40 times the final target concentration in DMSO:water (1:1). DMSO was added first, the solutions were allowed to stand for 60 minutes and then the water was added. […] The final DMSO concentration was 2.5%. The final drug concentrations in the FIC assay plates were set to bracket the MIC value of each test article for each test organism, unless the strain was totally resistant to the test article.

Cn1nnc(-c2ccc(-c3ccc(N4C[C@H](CO)OC4=O)cc3F)cn2)n1 [TR-700, Tedizolid]
DAP MIC lower than DAP-only control (S. aureus ATCC 33591; ATCC 33591, co-selecting agent at ¼ MIC): 4 fold
MIC (S. aureus ATCC 33591; ATCC33591, passage 0, ATCC 33591 WT): 0.5 µg/mL (≈ 1.35 µM)
MIC (S. aureus ATCC 33591; ATCC33591, passage 5, selection group DAP): 0.125 µg/mL (≈ 0.338 µM)
MIC (S. aureus ATCC 33591; ATCC33591, passage 5, selection group DAP + TMP/SMX): 0.5 µg/mL
MIC (S. aureus ATCC 33591; ATCC33591, passage 5, selection group DAP + TR-700): 0.5 µg/mL
MIC (S. aureus ATCC 33591; ATCC33591, passage 5, selection group DAP + VAN): 0.5 µg/mL
MIC (S. aureus ATCC 33591; ATCC33591, passage 10, selection group DAP): 0.125 µg/mL (≈ 0.338 µM)
MIC (S. aureus ATCC 33591; ATCC33591, passage 10, selection group DAP + TMP/SMX): 0.25 µg/mL
MIC (S. aureus ATCC 33591; ATCC33591, passage 10, selection group DAP + TR-700): 0.5 µg/mL
MIC (S. aureus ATCC 33591; ATCC33591, passage 10, selection group DAP + VAN): 0.5 µg/mL
MIC (S. aureus ATCC 33591; ATCC33591, passage 15, selection group DAP): 0.125 µg/mL (≈ 0.338 µM)
MIC (S. aureus ATCC 33591; ATCC33591, passage 15, selection group DAP + TMP/SMX): 0.25 µg/mL
MIC (S. aureus ATCC 33591; ATCC33591, passage 15, selection group DAP + TR-700): 0.5 µg/mL
MIC (S. aureus ATCC 33591; ATCC33591, passage 15, selection group DAP + VAN): 0.25 µg/mL
MIC (S. aureus ATCC 33591; ATCC33591, passage 20, selection group DAP): 0.125 µg/mL (≈ 0.338 µM)
MIC (S. aureus ATCC 33591; ATCC33591, passage 20, selection group DAP + TMP/SMX): 0.25 µg/mL
MIC (S. aureus ATCC 33591; ATCC33591, passage 20, selection group DAP + TR-700): 0.5 µg/mL
MIC (S. aureus ATCC 33591; ATCC33591, passage 20, selection group DAP + VAN): 0.5 µg/mL
MIC (S. aureus ATCC 33591; ATCC33591, passage 25, selection group DAP): 0.125 µg/mL (≈ 0.338 µM)
MIC (S. aureus ATCC 33591; ATCC33591, passage 25, selection group DAP + TMP/SMX): 0.25 µg/mL
MIC (S. aureus ATCC 33591; ATCC33591, passage 25, selection group DAP + TR-700): 0.25 µg/mL
MIC (S. aureus ATCC 33591; ATCC33591, passage 25, selection group DAP + VAN): 0.25 µg/mL
MIC (S. aureus ATCC 33591; ATCC33591, passage 30, selection group DAP): 0.125 µg/mL (≈ 0.338 µM)
MIC (S. aureus ATCC 33591; ATCC33591, passage 30, selection group DAP + TMP/SMX): 0.25 µg/mL
MIC (S. aureus ATCC 33591; ATCC33591, passage 30, selection group DAP + TR-700): 0.5 µg/mL
MIC (S. aureus ATCC 33591; ATCC33591, passage 30, selection group DAP + VAN): 0.5 µg/mL
MIC (S. aureus ATCC 33591; ATCC33591, read-out: DAP MIC of the co-selection passage group, ATCC 33591, through P15, co-selecting agent at ¼ MIC): ≤ 1 µg/mL
DAP MIC lower than DAP-only control (S. aureus MW2 (NRS123); MW2, after 30 passages, co-selecting agent at ¼ MIC, total population): 16 fold
MIC (S. aureus MW2 (NRS123); NRS123, passage 0, NRS123 WT): 0.5 µg/mL (≈ 1.35 µM)
MIC (S. aureus MW2 (NRS123); NRS123, passage 5, selection group DAP): 0.5 µg/mL (≈ 1.35 µM)
MIC (S. aureus MW2 (NRS123); NRS123, passage 5, selection group DAP + CLI): 0.5 µg/mL
MIC (S. aureus MW2 (NRS123); NRS123, passage 5, selection group DAP + LZD): 0.5 µg/mL
MIC (S. aureus MW2 (NRS123); NRS123, passage 5, selection group DAP + TET): 0.5 µg/mL
MIC (S. aureus MW2 (NRS123); NRS123, passage 5, selection group DAP + TIA): 0.5 µg/mL
MIC (S. aureus MW2 (NRS123); NRS123, passage 5, selection group DAP + TMP/SMX): 0.25 µg/mL
MIC (S. aureus MW2 (NRS123); NRS123, passage 5, selection group DAP + TR-700): 0.5 µg/mL
MIC (S. aureus MW2 (NRS123); NRS123, passage 5, selection group DAP + TR-705): 0.5 µg/mL
MIC (S. aureus MW2 (NRS123); NRS123, passage 5, selection group DAP + VAN): 0.25 µg/mL
MIC (S. aureus MW2 (NRS123); NRS123, passage 10, selection group DAP): 0.5 µg/mL (≈ 1.35 µM)
MIC (S. aureus MW2 (NRS123); NRS123, passage 10, selection group DAP + CLI): 0.5 µg/mL
MIC (S. aureus MW2 (NRS123); NRS123, passage 10, selection group DAP + LZD): 0.5 µg/mL
MIC (S. aureus MW2 (NRS123); NRS123, passage 10, selection group DAP + TET): 0.5 µg/mL
MIC (S. aureus MW2 (NRS123); NRS123, passage 10, selection group DAP + TIA): 0.5 µg/mL
MIC (S. aureus MW2 (NRS123); NRS123, passage 10, selection group DAP + TMP/SMX): 0.5 µg/mL
MIC (S. aureus MW2 (NRS123); NRS123, passage 10, selection group DAP + TR-700): 0.5 µg/mL
MIC (S. aureus MW2 (NRS123); NRS123, passage 10, selection group DAP + TR-705): 0.5 µg/mL
MIC (S. aureus MW2 (NRS123); NRS123, passage 10, selection group DAP + VAN): 0.25 µg/mL
MIC (S. aureus MW2 (NRS123); NRS123, passage 15, selection group DAP): 0.25 µg/mL (≈ 0.675 µM)
MIC (S. aureus MW2 (NRS123); NRS123, passage 15, selection group DAP + CLI): 0.25 µg/mL
MIC (S. aureus MW2 (NRS123); NRS123, passage 15, selection group DAP + LZD): 0.5 µg/mL
MIC (S. aureus MW2 (NRS123); NRS123, passage 15, selection group DAP + TET): 0.25 µg/mL
MIC (S. aureus MW2 (NRS123); NRS123, passage 15, selection group DAP + TIA): 0.5 µg/mL
MIC (S. aureus MW2 (NRS123); NRS123, passage 15, selection group DAP + TMP/SMX): 0.5 µg/mL
MIC (S. aureus MW2 (NRS123); NRS123, passage 15, selection group DAP + TR-700): 0.5 µg/mL
MIC (S. aureus MW2 (NRS123); NRS123, passage 15, selection group DAP + TR-705): 0.5 µg/mL
MIC (S. aureus MW2 (NRS123); NRS123, passage 15, selection group DAP + VAN): 0.5 µg/mL
MIC (S. aureus MW2 (NRS123); NRS123, passage 20, selection group DAP): 0.5 µg/mL (≈ 1.35 µM)
MIC (S. aureus MW2 (NRS123); NRS123, passage 20, selection group DAP + CLI): 0.25 µg/mL
MIC (S. aureus MW2 (NRS123); NRS123, passage 20, selection group DAP + LZD): 0.5 µg/mL
MIC (S. aureus MW2 (NRS123); NRS123, passage 20, selection group DAP + TET): 0.25 µg/mL
MIC (S. aureus MW2 (NRS123); NRS123, passage 20, selection group DAP + TIA): 0.5 µg/mL
MIC (S. aureus MW2 (NRS123); NRS123, passage 20, selection group DAP + TMP/SMX): 0.5 µg/mL
MIC (S. aureus MW2 (NRS123); NRS123, passage 20, selection group DAP + TR-700): 0.5 µg/mL
MIC (S. aureus MW2 (NRS123); NRS123, passage 20, selection group DAP + TR-705): 0.5 µg/mL
MIC (S. aureus MW2 (NRS123); NRS123, passage 20, selection group DAP + VAN): 0.5 µg/mL
MIC (S. aureus MW2 (NRS123); NRS123, passage 25, selection group DAP): 0.25 µg/mL (≈ 0.675 µM)
MIC (S. aureus MW2 (NRS123); NRS123, passage 25, selection group DAP + CLI): 0.25 µg/mL
MIC (S. aureus MW2 (NRS123); NRS123, passage 25, selection group DAP + LZD): 0.25 µg/mL
MIC (S. aureus MW2 (NRS123); NRS123, passage 25, selection group DAP + TET): 0.25 µg/mL
MIC (S. aureus MW2 (NRS123); NRS123, passage 25, selection group DAP + TIA): 0.5 µg/mL
MIC (S. aureus MW2 (NRS123); NRS123, passage 25, selection group DAP + TMP/SMX): 0.25 µg/mL
MIC (S. aureus MW2 (NRS123); NRS123, passage 25, selection group DAP + TR-700): 0.5 µg/mL
MIC (S. aureus MW2 (NRS123); NRS123, passage 25, selection group DAP + TR-705): 0.5 µg/mL
MIC (S. aureus MW2 (NRS123); NRS123, passage 25, selection group DAP + VAN): 0.25 µg/mL
MIC (S. aureus MW2 (NRS123); NRS123, passage 30, selection group DAP): 0.25 µg/mL (≈ 0.675 µM)
MIC (S. aureus MW2 (NRS123); NRS123, passage 30, selection group DAP + CLI): 0.25 µg/mL
MIC (S. aureus MW2 (NRS123); NRS123, passage 30, selection group DAP + LZD): 0.5 µg/mL
MIC (S. aureus MW2 (NRS123); NRS123, passage 30, selection group DAP + TET): 0.25 µg/mL
MIC (S. aureus MW2 (NRS123); NRS123, passage 30, selection group DAP + TIA): 0.5 µg/mL
MIC (S. aureus MW2 (NRS123); NRS123, passage 30, selection group DAP + TMP/SMX): 0.5 µg/mL
MIC (S. aureus MW2 (NRS123); NRS123, passage 30, selection group DAP + TR-700): 0.5 µg/mL
MIC (S. aureus MW2 (NRS123); NRS123, passage 30, selection group DAP + TR-705): 0.5 µg/mL
MIC (S. aureus MW2 (NRS123); NRS123, passage 30, selection group DAP + VAN): 0.25 µg/mL
MIC (S. aureus MW2 (NRS123); NRS123, read-out: DAP MIC by the end of the experiment (selection of DAP^ns strains), MW2, passaged with DAP alone or with co-selecting agent at ¼ MIC, CLSI breakpoint): > 1 µg/mL
susceptibility to the co-selecting agent in its co-selection group (S. aureus MW2 (NRS123); over the course of 30 passages): did not demonstrate reduced susceptibility to TR-700
concentration above which a precipitate formed [1]: above 1280 μg/ml
